Calls of active or inactive are those of the source. No cut-off for these calls is given here.
What was measured:
[1] = biological target: cGMP-specific 3',5'-cyclic phosphodiesterase (Homo sapiens, UniProt O76074); assay: Inhibition of PDE5A (unknown origin)
[2] = biological target: cGMP-dependent 3',5'-cyclic phosphodiesterase (Homo sapiens, UniProt O00408); assay: Inhibition of PDE2 (unknown origin)
Phosphodiesterase 4 = Phosphodiesterase 4 (Homo sapiens, UniProt P27815+Q08499+Q07343+Q08493); assay: Inhibition of PDE4 (unknown origin); type: protein assay
Phosphodiesterase 6 = assay: Inhibition of PDE6 (unknown origin); type: protein assay, Homo sapiens
[3] = biological target: High affinity cGMP-specific 3',5'-cyclic phosphodiesterase 9A (Homo sapiens, UniProt O76083); assay: Inhibition of PDE9 (unknown origin)
[4] = biological target: cAMP and cAMP-inhibited cGMP 3',5'-cyclic phosphodiesterase 10A (Homo sapiens, UniProt Q9Y233); assay: Inhibition of PDE10 (unknown origin)
Homo sapiens [5] = organism: Homo sapiens; assay: Selectivity index, ratio of IC50 for PDE2 (unknown origin) to IC50 for PDE5A (unknown origin)
Homo sapiens [6] = organism: Homo sapiens; assay: Selectivity index, ratio of IC50 for PDE4 (unknown origin) to IC50 for PDE5A (unknown origin)
Homo sapiens [7] = organism: Homo sapiens; assay: Selectivity index, ratio of IC50 for PDE9 (unknown origin) to IC50 for PDE5A (unknown origin)
Homo sapiens [8] = organism: Homo sapiens; assay: Selectivity index, ratio of IC50 for PDE6 (unknown origin) to IC50 for PDE5A (unknown origin)
Mus musculus [9] = assay: Cognitive enhancing effect in mouse mouse model of scopolamine-induced cognition deficit assessed as reduction in escape latency at 5 and 10 mg/kg by water maze test; type: functional, organism-based
Mus musculus [10] = assay: Cognitive enhancing effect in mouse mouse model of scopolamine-induced cognition deficit assessed as decrease in frequent error at 5 and 10 mg/kg by water maze test; type: functional, organism-based

Sequence of cGMP-dependent 3',5'-cyclic phosphodiesterase (O00408 whole entry): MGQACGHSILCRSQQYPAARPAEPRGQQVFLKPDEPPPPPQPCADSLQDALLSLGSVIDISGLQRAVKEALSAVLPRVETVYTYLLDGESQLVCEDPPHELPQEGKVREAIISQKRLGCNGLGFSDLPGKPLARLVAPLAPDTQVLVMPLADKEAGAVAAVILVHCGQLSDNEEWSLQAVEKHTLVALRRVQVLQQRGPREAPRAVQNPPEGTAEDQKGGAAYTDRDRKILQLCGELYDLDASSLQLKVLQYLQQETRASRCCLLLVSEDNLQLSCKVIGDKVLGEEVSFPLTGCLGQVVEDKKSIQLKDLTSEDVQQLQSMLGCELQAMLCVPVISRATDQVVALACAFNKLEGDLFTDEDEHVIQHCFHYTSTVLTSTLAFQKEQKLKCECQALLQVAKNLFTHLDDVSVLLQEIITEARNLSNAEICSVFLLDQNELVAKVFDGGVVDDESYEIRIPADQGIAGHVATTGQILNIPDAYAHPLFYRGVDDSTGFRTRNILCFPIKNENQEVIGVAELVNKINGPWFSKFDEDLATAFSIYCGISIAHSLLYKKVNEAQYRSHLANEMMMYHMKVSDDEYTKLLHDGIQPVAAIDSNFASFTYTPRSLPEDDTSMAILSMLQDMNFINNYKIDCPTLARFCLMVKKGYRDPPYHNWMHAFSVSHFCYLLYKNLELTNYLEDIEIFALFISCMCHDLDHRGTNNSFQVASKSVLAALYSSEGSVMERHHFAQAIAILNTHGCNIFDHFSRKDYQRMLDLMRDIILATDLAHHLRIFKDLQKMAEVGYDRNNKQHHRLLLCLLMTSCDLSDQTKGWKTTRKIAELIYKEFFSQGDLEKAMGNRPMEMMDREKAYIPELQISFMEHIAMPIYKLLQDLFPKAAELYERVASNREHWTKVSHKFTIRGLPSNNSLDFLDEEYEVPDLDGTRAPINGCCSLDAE
Sequence of High affinity cGMP-specific 3',5'-cyclic phosphodiesterase 9A (O76083 whole entry): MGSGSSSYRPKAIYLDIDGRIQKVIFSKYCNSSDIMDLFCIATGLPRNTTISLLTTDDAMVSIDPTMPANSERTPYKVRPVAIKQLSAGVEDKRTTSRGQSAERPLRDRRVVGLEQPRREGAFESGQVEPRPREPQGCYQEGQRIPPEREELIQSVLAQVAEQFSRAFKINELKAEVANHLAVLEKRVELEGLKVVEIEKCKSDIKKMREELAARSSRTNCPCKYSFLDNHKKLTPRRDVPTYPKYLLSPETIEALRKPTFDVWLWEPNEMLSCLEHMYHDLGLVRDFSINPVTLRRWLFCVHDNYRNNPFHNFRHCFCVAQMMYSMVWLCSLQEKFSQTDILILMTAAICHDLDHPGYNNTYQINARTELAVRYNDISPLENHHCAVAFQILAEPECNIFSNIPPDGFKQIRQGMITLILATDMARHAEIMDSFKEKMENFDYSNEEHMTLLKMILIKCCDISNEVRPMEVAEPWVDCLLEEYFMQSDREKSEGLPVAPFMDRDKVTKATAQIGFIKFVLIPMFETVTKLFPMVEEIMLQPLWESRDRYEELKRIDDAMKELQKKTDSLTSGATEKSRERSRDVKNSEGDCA
Sequence of cAMP and cAMP-inhibited cGMP 3',5'-cyclic phosphodiesterase 10A (Q9Y233 whole entry): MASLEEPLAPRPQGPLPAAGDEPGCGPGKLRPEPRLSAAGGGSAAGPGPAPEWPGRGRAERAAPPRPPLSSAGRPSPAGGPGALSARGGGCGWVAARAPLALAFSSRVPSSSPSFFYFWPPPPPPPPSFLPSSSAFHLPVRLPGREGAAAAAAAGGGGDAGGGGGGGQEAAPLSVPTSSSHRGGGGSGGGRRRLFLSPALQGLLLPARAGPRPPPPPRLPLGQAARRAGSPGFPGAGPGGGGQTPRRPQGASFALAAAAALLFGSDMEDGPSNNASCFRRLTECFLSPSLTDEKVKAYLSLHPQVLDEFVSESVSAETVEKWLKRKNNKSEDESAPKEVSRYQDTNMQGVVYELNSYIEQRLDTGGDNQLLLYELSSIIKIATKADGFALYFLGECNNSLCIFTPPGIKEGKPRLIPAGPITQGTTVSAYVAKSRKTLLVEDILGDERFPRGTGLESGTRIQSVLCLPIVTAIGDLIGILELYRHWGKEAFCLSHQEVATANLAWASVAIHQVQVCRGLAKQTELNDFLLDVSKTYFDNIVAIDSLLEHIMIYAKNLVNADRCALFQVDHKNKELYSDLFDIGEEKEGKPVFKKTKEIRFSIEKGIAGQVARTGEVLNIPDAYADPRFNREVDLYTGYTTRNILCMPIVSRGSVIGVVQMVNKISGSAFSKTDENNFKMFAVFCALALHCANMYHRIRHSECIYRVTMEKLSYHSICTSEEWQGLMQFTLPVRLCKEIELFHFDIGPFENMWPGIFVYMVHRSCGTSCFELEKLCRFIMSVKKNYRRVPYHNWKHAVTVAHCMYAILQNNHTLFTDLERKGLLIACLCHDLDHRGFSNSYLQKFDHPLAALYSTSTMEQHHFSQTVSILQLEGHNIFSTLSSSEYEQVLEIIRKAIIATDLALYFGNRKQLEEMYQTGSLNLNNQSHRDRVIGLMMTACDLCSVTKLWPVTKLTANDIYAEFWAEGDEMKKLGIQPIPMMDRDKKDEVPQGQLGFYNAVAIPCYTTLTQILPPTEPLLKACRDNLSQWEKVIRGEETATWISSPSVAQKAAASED

Row | Structure (SMILES) | IC50 [1] | also measured
1 | CCCCn1c2c(c3c(OC)cc(OC)cc31)CCn1c-2nc2ccccc2c1=O | 20600 nM | 
2 | CCn1c2c(c3ccccc31)CCn1c-2nc2ccccc2c1=O | 1120 nM | 
3 | COc1ccc2c3c([nH]c2c1)-c1nc2ccccc2c(=O)n1CC3 | 22100 nM | 
4 | CCn1c2c(c3ccc(O)cc31)CCn1c-2nc2ccccc2c1=O | 970 nM | 
5 | CCCn1c2c(c3c(O)cc(O)cc31)CCn1c-2nc2ccccc2c1=O | 330 nM | 
6 | CCn1c2c(c3c(O)cc(O)cc31)CCn1c-2nc2ccccc2c1=O | 970 nM | 
7 | CC(C)CCn1c2c(c3ccccc31)CCn1c-2nc2ccccc2c1=O | 610 nM | 
8 | O=c1c2ccccc2nc2n1CCc1c-2[nH]c2cc(O)cc(O)c12 | 790 nM | 
9 | CCCn1c2c(c3c(OC)cc(OC)cc31)CCn1c-2nc2ccccc2c1=O | 19800 nM | 
10 | COc1cc(OC)c2c3c([nH]c2c1)-c1nc2ccccc2c(=O)n1CC3 | 45600 nM | 
11 | O=c1c2ccccc2nc2n1CCc1c-2[nH]c2cc(O)ccc12 | 1360 nM | 
12 | CCCCn1c2c(c3ccccc31)CCn1c-2nc2ccccc2c1=O | 1120 nM | 
13 | CCCCn1c2c(c3ccc(O)cc31)CCn1c-2nc2ccccc2c1=O | 630 nM | 
14 | CCCn1c2c(c3ccc(OC)cc31)CCn1c-2nc2ccccc2c1=O | 12100 nM | 
15 | O=c1c2ccccc2nc2n1CCc1c-2[nH]c2ccccc12 [RUTAECARPINE] | 1230 nM | 
16 | CC(C)CCn1c2c(c3c(O)cc(O)cc31)CCn1c-2nc2ccccc2c1=O | 86 nM | IC50 [2]: > 500000 nM; IC50 (Phosphodiesterase 4): > 500000 nM; IC50 (Phosphodiesterase 6): 43800 nM; IC50 [3]: > 500000 nM; IC50 [4]: 32100 nM; Ratio IC50 (Homo sapiens [5]): > 5000; Ratio IC50 (Homo sapiens [6]): > 5000; Ratio IC50 (Homo sapiens [7]): > 5000; Ratio IC50 (Homo sapiens [8]): > 500; Activity (Mus musculus [9]): Active; Activity (Mus musculus [10]): Active
17 | COc1cc(OC)c2c3c(n(CCC(C)C)c2c1)-c1nc2ccccc2c(=O)n1CC3 | 18200 nM | 
18 | CC(C)CCn1c2c(c3ccc(O)cc31)CCn1c-2nc2ccccc2c1=O | 110 nM | 
19 | CCCn1c2c(c3ccc(O)cc31)CCn1c-2nc2ccccc2c1=O | 1330 nM | 
20 | CCCn1c2c(c3ccccc31)CCn1c-2nc2ccccc2c1=O | 1700 nM | 
21 | CCCc1nn(C)c2c(=O)[nH]c(-c3cc(S(=O)(=O)N4CCN(C)CC4)ccc3OCC)nc12 |  | Ratio IC50 (Homo sapiens [8]): 10
22 | CCn1c2c(c3c(OC)cc(OC)cc31)CCn1c-2nc2ccccc2c1=O | 47300 nM | 
23 | CCCCn1c2c(c3ccc(OC)cc31)CCn1c-2nc2ccccc2c1=O | 9190 nM | 
24 | CCn1c2c(c3ccc(OC)cc31)CCn1c-2nc2ccccc2c1=O | 11600 nM | 
25 | COc1ccc2c3c(n(CCC(C)C)c2c1)-c1nc2ccccc2c(=O)n1CC3 | 6170 nM | 
26 | COc1cc2c(cc1OC)C(=O)C(CC1CCN(Cc3ccccc3)CC1)C2 (stereo not drawn) [DONEPEZIL] | > 100000 nM | 
27 | CCCCn1c2c(c3c(O)cc(O)cc31)CCn1c-2nc2ccccc2c1=O | 260 nM | 
